Data: patent US6054462A, “Intranasal antimigraine compositions” (Janssen Pharmaceutica, N.V., priority 1994, dated 2000)

Experiments:
5-HT1 -like receptors = conditions: in vitro and in vivo animal experiments; cited from earlier work
clinical = experiment: clinical; set-up: species or system healthy volunteers; conditions: human, in vivo
Method: A double-blind, randomized, cross-over trial in healthy volunteers during four treatment days were set up. All volunteers (n=8) participated in the four sessions of the trial, in which the above formulation was tested. On each treatment day volunteers received a single intranasal administration of 1 mg of a formulation of (-)-(R)-N-[(3,4-dihydro-2H-1-benzopyran-2-yl)methyl]-N'-(1,4,5,6-tetrahydro-2-pyrimidinyl)-1,3-propanediamine dihydrochloride as described in example 1. Unidose nasal sprayers at a concentration of 10 mg/ml, which provided a volume of 100 μl per spray were used. The composition was administered to the volunteers as a single spray in one nostril. Blood was sampled over 24 hours for pharmacokinetic analysis. Venous 10 ml blood samples for drug analysis were taken at 0, 5, 10, 20, 30, 60, 90, 120, 240 and 360 minutes and 24 hours after drug administration. The blood samples were transferred to heparinized tubes and centrifuged within 30 minutes after collection. Separated plasma was transferred to polystyrene tubes adequately labelled with the trial number, subject number and initials, time and date of sampling.
Concentrations of (-)-(R)-N-[(3,4-dihydro-2H-1-benzopyran -2-yl)methyl]-N'-(1,4,5,6-tetrahydro-2-pyrimidinyl)-1,3-propanediamine dihydrochloride were determined by radio immunoassay. […]

| bioavailability at 24 h (clinical) [%] | Structure (SMILES) | arterial vasoconstrictor response arises through activation of 5-HT1 -like receptors (5-HT1 -like receptors) | vasoconstrictory properties (5-HT1 -like receptors) |
| --- | --- | --- | --- |
| – | c1ccc2c(c1)CCC(CNCCCNC1=NCCCN1)O2 (stereo not drawn) [N-[(3,4-dihydro-2H-1-benzopyran-2-yl)methyl]-N'-(1,4,5,6-tetrahydro-2-pyrimidinyl)-1,3-propanediamine] | agonistic activation of 5-HT1 -like receptors | highly vasoconstrictory properties |
| ~35 | Cl.Cl.c1ccc2c(c1)CC[C@H](CNCCCNC1=NCCCN1)O2 [active ingredient, (-)-(R)-N-[(3,4-dihydro-2H-1-benzopyran-2-yl)methyl]-N'-(1,4,5,6-tetrahydro-2-pyrimidinyl)-1,3-propanediamine dihydrochloride] | – | – |
